# Source: patent US20060211733A1, “Methods of preventing and treating opioid bowel dysfunction” (Adolor Corporation, priority 2005, published 2006)
# Tested on: opioid-induced bowel dysfunction in non-malignant pain subjects
# Assay: six-week, randomized, double-blind, placebo-controlled study of three alvimopan dosage regimens
# Format: in vivo, human
# Procedure: A six-week, randomize, double-blind, placebo-controlled study was conducted to evaluate three dosage regimens for [[(2S)-2-[[(3R,4R)-4-(3-hydroxyphenyl)-3,4-dimethylpiperidin-1-yl]methyl]-3-phenylpropanoyl]amino]acetic acid dihydrate (alvimopan) for the treatment of opioid-induced bowel dysfunction in non-malignant pain subjects, including an evaluation of the improvement of spontaneous bowel movement (SBM) frequency compared to placebo while maintaining an acceptable tolerability profile.
# Subjects meeting the initial screening criteria for the study population, and who had been administered chronic opioid therapy for non-malignant pain, were selected.
structure (smiles),measurement,setting,value
"C[C@H]1CN(C[C@H](Cc2ccccc2)C(=O)NCC(=O)O)CC[C@@]1(C)c1cccc(O)c1.O.O [alvimopan, [[(2S)-2-[[(3R,4R)-4-(3-hydroxyphenyl)-3,4-dimethylpiperidin-1-yl]methyl]-3-phenylpropanoyl]amino]acetic acid dihydrate]",efficacy,0.5 mg BID,comparable to 1 mg QD or 1 mg BID
same,safety profile,0.5 mg BID,comparable to the placebo
same,primary and key secondary endpoints (spontaneous bowel movement frequency) compared to placebo,"all three doses (0.5 mg BID, 1 mg QD, 1 mg BID), subjects on chronic opioid therapy","significantly better, both clinically and statistically, than the placebo"
same,tolerability,all treatment arms,well-tolerated
same,analgesic antagonism,based on changes in pain scores or opioid consumption during the study,no evidence of analgesic antagonism
same,rebound post active treatment,non-treatment follow-up period,no evidence of rebound
same,tachyphylaxis,over six-week treatment period,no evidence of tachyphylaxis
same,onset and duration of treatment effects,six-week treatment period,significant at week 1 and were sustained over the entire six-week treatment period
